Measurements from publication PMC6539525, “Design, Synthesis, and Mechanism of Dihydroartemisinin–Coumarin Hybrids as Potential Anti-Neuroinflammatory Agents” (Molecules, 2019).
Where two headings read alike, the source gives them in different places.

Tests used:
HT-29 cells = experiment: MTT cytotoxicity in HT-29 cells; type: cell-based, Human; conditions: Homo sapiens, MTT
Description: (§1) As the anti-neuroinflammatory agents for cancer patients, all newly synthesized compounds were evaluated in vitro for antitumor activity against human breast cancer cell line MDA-MB-231, colorectal cancer cells HT-29 and HCT-116, and lung cancer cell line A549 by using the standard MTT method, respectively. Doxorubicin (DOX) and DHA were used as the reference standard. Additionally, owing to the rapid proliferation, the tumor cells actually was always in hypoxia condition. Therefore, the in vitro cytotoxicity was evaluated in two different conditions (hypoxia and normoxia).
After recovery, the cells were cultured in 96-well plates for 24 h at 37 °C in a humidified atmosphere with 95% air and 5% CO2. After treated with different tested compounds, the hypoxia groups were placed in a sealed hypoxia incubator chamber (Stemcell Technologies, Inc., Vancouver, BC, Canada) filled with 5% CO2 and 95% N2 for 24 h, and then transferred to the incubator chamber filled with air for 72 h. […]
(§2) Cancer cells HT-29 (Human Colorectal Adenocarcinoma cell line), MDA-MB-231 (Human Breast Cancer cell line), HCT-116 (Human Colorectal Carcinoma cell line), and A549 (Human Lung Adenocarcinomic cell line) were from ATCC.
When the adherent cells reached 80% confluence, the culture medium was discarded. The cells were digested by trypsin and collected after centrifugation. The fresh culture medium was gently blown into it to form single-cell suspension. Cell suspension will be diluted to 1.5–3 × 10^4 cells/mL. Each hole of 96-well plates was added 100 μL cell suspension and incubated for 24 h (5% CO2; 37 °C). Then the holes were added different concentrations of tested compounds. The early screening concentration is set to 100 μM, 50 μM, 25 μM, 12.5 μM, and 6.25 μM. Three replicates were made for each concentration of the tested compounds. […] The medium was discarded and each well was added 100 μL DMSO to dissolve the formazan blue. Absorbance was measured at 570 nm with a microplate reader (Synergy-HT, BioTek Instruments, Winooski, VT, USA). […]

MDA-MB-231 cells = experiment: MTT cytotoxicity in MDA-MB-231 cells; type: cell-based; conditions: Homo sapiens
Description: as §1
(§3) After recovery, the cells were cultured in 96-well plates for 24 h at 37 °C in a humidified atmosphere with 95% air and 5% CO2. After treated with different tested compounds, the hypoxia groups were placed in a sealed hypoxia incubator chamber (Stemcell Technologies, Inc., Vancouver, BC, Canada) filled with 5% CO2 and 95% N2 for 24 h, and then transferred to the incubator chamber filled with air for 72 h. On the contrary, the normoxia groups were cultured under air condition for 96h.
as §2
(§4) When the adherent cells reached 80% confluence, the culture medium was discarded. The cells were digested by trypsin and collected after centrifugation. The fresh culture medium was gently blown into it to form single-cell suspension. Cell suspension will be diluted to 1.5–3 × 10^4 cells/mL. Each hole of 96-well plates was added 100 μL cell suspension and incubated for 24 h (5% CO2; 37 °C). Then the holes were added different concentrations of tested compounds. The early screening concentration is set to 100 μM, 50 μM, 25 μM, 12.5 μM, and 6.25 μM. Three replicates were made for each concentration of the tested compounds. After the cells were grown for 96h, 20 μL MTT (5 mg/mL) was added to each well and incubated for 4 h. The medium was discarded and each well was added 100 μL DMSO to dissolve the formazan blue. Absorbance was measured at 570 nm with a microplate reader (Synergy-HT, BioTek Instruments, Winooski, VT, USA).
(§5) Hypoxia condition: The cells were treated with different concentration of tested compounds, placed in hypoxia chamber (Catalog Number 27310, Stemcell Technologies, Inc., Vancouver, BC, Canada), and incubated for 24 h ([…]; 37 °C). Then the cells were placed in normoxia condition (5% CO2; 37 °C) and incubated for 72 h.

HCT-116 cells = experiment: MTT cytotoxicity in HCT-116 cells; type: cell-based; conditions: Homo sapiens
Description: as §1, §3, §2, §4, §5

A549 cells = experiment: MTT cytotoxicity in A549 cells; type: cell-based; conditions: Homo sapiens
Description: as §1, §3, §2, §4, §5

[1] = system: NO release of LPS-induced microglial N9 cells; experiment: Inhibition of NO release in LPS-induced N9 cells (Griess); type: cell-based, murine; conditions: Mus musculus, 1 μg/mL LPS for 48 h, NO level in medium
Description: (§6) The anti-neuroinflammatory activity of DCH was evaluated and then the representative compounds were selected for the further study. […] In addition, in order to exclude the death influence, MTT-IC20 of all the compounds were measured. […] The exact reason was still unclear, but we supposed that it might be related to the homeostasis of cells. The tumor cells actually were always in hypoxia condition, in which DCH could promote the cytotoxic activity against tumor cells. In brief, DCH could reduce the release of NO caused by LPS-induced microglial cells.
(§7) N9 cells, which were in the logarithmic phase, were incubated for 24 h by adherent culture. Subsequently, the medium was changed to new one without serum. The cells were treated with different concentration of tested compounds. After specific time in the LPS condition, the supernatants were collected and analyzed.
The nitrite levels in medium were determined by Griess reaction. The absorbance was measured at 540 nm using a microplate reader.

[2] = MTT cytotoxicity in N9 cells; type: cell-based, murine; conditions: mouse, N9 microglial cells, cytotoxic activity
Description: as §6, §4, §7

[3] = HT-29, hypoxia 24 h then normoxia 72 h, read-out: IC50 HT-29 Hypoxia
[4] = HT-29, normoxia 96 h, read-out: IC50 HT-29 Normoxia
[5] = MDA-MB-231, hypoxia 24 h then normoxia 72 h, read-out: IC50 MDA-MB-231 Hypoxia
[6] = MDA-MB-231, normoxia 96 h, read-out: IC50 MDA-MB-231 Normoxia
[7] = HCT-116, hypoxia 24 h then normoxia 72 h, read-out: IC50 HCT-116 Hypoxia
[8] = HCT-116, normoxia 96 h, read-out: IC50 HCT-116 Normoxia
[9] = A549, hypoxia 24 h then normoxia 72 h, read-out: IC50 A549 Hypoxia
[10] = A549, normoxia 96 h, read-out: IC50 A549 Normoxia

Row | IC50 [1] [µM] | Structure (SMILES) | IC50 (HT-29 cells; [3]) [µM] | IC50 (HT-29 cells; [4]) [µM] | IC50 (MDA-MB-231 cells; [5]) [µM] | IC50 (MDA-MB-231 cells; [6]) [µM] | IC50 (HCT-116 cells; [7]) [µM] | IC50 (HCT-116 cells; [8]) [µM] | IC50 (A549 cells; [9]) [µM] | IC50 (A549 cells; [10]) [µM] | IC20 [2] [µM]
1 | 2.03 | C[C@H]1[C@@H](OCCc2cn(Cc3cc(=O)oc4cc(O)ccc34)nn2)O[C@@H]2O[C@@]3(C)CC[C@H]4[C@H](C)CC[C@@H]1[C@@]24OO3 [4f, 7-hydroxy-4-((4-(2-((10S)-dihydroartemisininoxy)ethyl)-1H-1,2,3-triazol-1-yl)-methyl)-2H-1-chromen-2-one] | 11.3 | 32.3 | 78.8 | > 100 | > 100 | > 100 | > 100 | > 100 | > 10
2 | 1.36 | Cc1cc(C)c2c(Cn3cc(CCO[C@H]4O[C@@H]5O[C@@]6(C)CC[C@H]7[C@H](C)CC[C@@H]([C@H]4C)[C@@]57OO6)nn3)cc(=O)oc2c1 [4g, 5,7-dimethyl-4-((4-(2-((10S)-dihydroartemisininoxy)ethyl)-1H-1,2,3-triazol-1-yl)-methyl)-2H-1-chromen-2-one] | 9.33 | 13.8 | 22.7 | > 100 | 25.7 | 34.5 | > 100 | > 100 | > 10

Second part, the compound before the results:

Row | Structure (SMILES) | IC50 [1] [µM] | IC50 (HT-29 cells; [3]) [µM] | IC50 (HT-29 cells; [4]) [µM] | IC50 (MDA-MB-231 cells; [5]) [µM] | IC50 (MDA-MB-231 cells; [6]) [µM] | IC50 (HCT-116 cells; [7]) [µM] | IC50 (HCT-116 cells; [8]) [µM] | IC50 (A549 cells; [9]) [µM] | IC50 (A549 cells; [10]) [µM] | IC20 [2] [µM]
3 | C[C@H]1[C@@H](O)O[C@@H]2O[C@@]3(C)CC[C@H]4[C@H](C)CC[C@@H]1[C@@]24OO3 [DHA, Dihydroartemisinin] | 1.58 | 11.7 | 51.1 | 45.9 | > 100 | 25.9 | 10.3 | > 100 | > 100 | > 10
4 | Cc1ccc2oc(=O)cc(Cn3cc(CO[C@H]4O[C@@H]5O[C@@]6(C)CC[C@H]7[C@H](C)CC[C@@H]([C@H]4C)[C@@]57OO6)nn3)c2c1 [3i, 6-methyl-4-((4-((10S)-dihydroartemisininoxy)methyl-1H-1,2,3-triazol-1-yl)-methyl)-2H-1-chromen-2-one] | 0.72 | 8.57 | 16.4 | 22.8 | > 100 | > 100 | 65 | 62.3 | > 100 | > 10
5 | C[C@H]1[C@@H](OCc2cn(Cc3cc(=O)oc4cc(O)ccc34)nn2)O[C@@H]2O[C@@]3(C)CC[C@H]4[C@H](C)CC[C@@H]1[C@@]24OO3 [3f, 7-hydroxy-4-((4-((10S)-dihydroartemisininoxy)methyl-1H-1,2,3-triazol-1-yl)-methyl)-2H-1-chromen-2-one] | 0.37 | 15.5 | 37.8 | 63.1 | > 100 | 67.7 | > 100 | 98 | > 100 | > 10
6 | C[C@H]1[C@@H](OCCn2cc(COc3cc(=O)oc4ccccc34)nn2)O[C@@H]2O[C@@]3(C)CC[C@H]4[C@H](C)CC[C@@H]1[C@@]24OO3 [5j] | 1.59 | 12.2 | 30 | 69.4 | 100 | > 100 | 77.2 | > 100 | > 100 | > 10
